Measurements as given in patent US9901592B2 (priority 2008, dated 2018).
Values after ≈ are worked out from the molar mass of the structure shown. Read-outs that look alike come from different tables or passages of the source.

Tests used:
[1] = system: M. catarrhalis; assay: microbe, parasite or virus in culture; assay type: cell-based; details: Moraxella catarrhalis
[2] = system: S. pneumoniae; assay: MIC of the strains of the mouse systemic infection model; assay type: cell-based; details: Streptococcus pneumoniae
[3] = system: intraphagocytic L. pneumophila ATCC 33153 (THP-1); assay type: cell-based; details: intracellular L. pneumophila ATCC 33153
[4] = system: pneumococci; assay: microbe, parasite or virus in culture; assay type: cell-based, S. pneumoniae; details: Streptococcus pneumoniae
[5] = system: N. meningitidis; assay: MIC, CLSI broth microdilution, invasive isolates; assay type: cell-based; details: Neisseria meningitidis; 62 N. meningitidis isolates
Experimental: Example. […] Colonization of the nasopharynx (NP) by NM can lead to invasive meningococcal disease. Chemoprophylaxis is used to eradicate NP colonization and prevent transmission to nonimmune contacts. […] 62 isolates (91.9% blood culture) of NM were collected from 29 medical centers in North and South America and Europe (1997-2008). […] Serological identification was performed for serogroups (SGs) B, C, Y and W135.

[6] = system: S. aureus; assay: mouse systemic infection model (PD50); assay type: in vivo
[7] = system: S. pneumoniae; assay: neutropenic mouse thigh infection; assay type: in vivo; details: PO
Experimental: Example. Neutropenic Mouse Thigh Infection. Mice were rendered neutropenic with IP injections of cyclophosamide at day −4 and day −1 of 150 mg/Kg and 100 mg/Kg, respectively. On day 0 mice were infected with approximately 5×10^5 CFU/ml of bacteria in a 0.1 ml volume into the right thigh. At 1.5 hours post infection mice received treatment via oral gavage. One group of infected mice were euthanized and thigh processed for bacterial titers to serve as T=0 controls. Twenty-four hours post treatment, the remaining mice were euthanized, thighs aseptically removed, weighed, homogenized, serially diluted and plated on bacterial growth media. CFUs per gram of thigh were calculated after overnight incubation of bacterial plates. The amount of test article required to achieve 1, 2, and 3 loge reductions from 24 hour control thighs were calculated. Additional studies were performed that fractionated the single treatment dose (Q24) into two (Q12), three (Q8) and four (Q6) equivalent doses to determine the pharmacodynamic nature of this compound. Further analysis includes static dose, EC50, 1 log kill and maximal effect (Emax).

[8] = system: S. pneumoniae; assay: neutropenic mouse thigh infection; assay type: in vivo; details: QD, PO
[9] = system: S. pyogenes; assay: MIC of the strains of the mouse systemic infection model; assay type: cell-based; details: Streptococcus pyogenes
[10] = system: S. pneumoniae; assay: microbe, parasite or virus in culture; assay type: cell-based; details: Streptococcus pneumoniae
[11] = system: S. pyogenes; assay: microbe, parasite or virus in culture; assay type: cell-based; details: for MIC: Streptococcus pyogenes
[12] = system: S. pyogenes; assay type: cell-based; details: for Mutant selection frequencies: S. pyogenes
[13] = system: S. pneumoniae; assay type: cell-based

Structure (SMILES): CC[C@H]1OC(=O)[C@H](C)[C@@H](O[C@H]2C[C@@](C)(OC)[C@@H](O)[C@H](C)O2)[C@H](C)[C@@H](O[C@@H]2O[C@H](C)C[C@H](N(C)C)[C@H]2O)[C@](C)(OC)C[C@@H](C)C(=O)[C@H](C)[C@@H](O)[C@]1(C)O [CLR, clarithromycin]
- MIC90 [1]: 0.12 µg/mL (≈ 0.16 µM)
- MIC ([2]; S. pneumoniae (macrolide susceptible)): > 16 µg/mL
- MIC ([2]; S. pneumoniae (mefR), read-out: MIC): 0.5 µg/mL
- MIC ([2]; S. pneumoniae serotype 19A, read-out: MIC): > 16 µg/mL
- Cs, static concentration [3]: 0.12 mg/L
- MIC50 ([4]; pneumococci, L4 mutations (27)): 16 µg/mL (≈ 21.4 µM)
- MIC90 ([4]; pneumococci, L4 mutations (27)): 32 µg/mL (≈ 42.8 µM)
- MIC ([4]; read-out: MIC range, pneumococci, L4 mutations (27)): 1 to 32 µg/mL (≈ 1.34 to 42.8 µM)
- MIC [5]: 0.015 to 0.25 µg/mL (≈ 0.0201 to 0.334 µM)
- MIC50 [5]: 0.03 µg/mL (≈ 0.0401 µM)
- MIC90 [5]: 0.12 µg/mL (≈ 0.16 µM)
- PD50 ([6]; MRSA): 5.0 mg/kg
- PD50 ([6]; MRSA 300 (CA)): 19.5 mg/kg
- PD50 ([6]; S. aureus, single oral dose 1 hr post infection): 22.7 mg/kg
- Max. change in log10CFUs from 24 hr. controls ([7]; S. pneumoniae 1629): −5.75 log10CFUs
- Dose for 2 log10 Reduction from 24 hour controls ([7]; S. pneumoniae 1629, QD): 9.0 mg/Kg
- Max. change in log10CFUs from 24 hr. controls ([7]; S. pneumoniae 6303): −5.20 log10CFUs
- Dose for 1 log10 Reduction from 24 hour controls ([8]; S. pneumoniae 1629): 4.5 mg/Kg
- Dose for 3 log10 Reduction from 24 hour controls ([8]; S. pneumoniae 1629): 13.5 mg/Kg
- Dose for 1 log10 Reduction from 24 hour controls ([8]; S. pneumoniae 6303): 5.5 mg/Kg
- Dose for 2 log10 Reduction from 24 hour controls ([8]; S. pneumoniae 6303): 9.2 mg/Kg
- Dose for 3 log10 Reduction from 24 hour controls ([8]; S. pneumoniae 6303): 14.0 mg/Kg
- MIC ([9]; S. pyogenes (erythromycin R)): 1 µg/mL
- MIC ([9]; S. pyogenes (macrolide susceptible)): 0.015 µg/mL
- MIC90 [10]: > 32 µg/mL
- strains with resistant clones / strains tested ([11]; S. pyogenes): 1/4
- MIC ([11]; read-out: Initial MIC, strain 237 Macrolide-R [LA mutation], parent): 0.25 µg/mL (≈ 0.334 µM)
- MIC ([11]; read-out: Initial MIC, strain 2011 Macrolide-R [mef(A)], parent): 4 µg/mL (≈ 5.35 µM)
- MIC ([11]; read-out: Initial MIC, strain 2094 Macrolide-R [erm(A)], parent): 0.5 µg/mL (≈ 0.668 µM)
- MIC ([11]; read-out: Initial MIC, strain 2132 Macrolide-S, parent): 0.03 µg/mL (≈ 0.0401 µM)
- MIC ([11]; read-out: Initial MIC, strain 2368 Macrolide-R [erm(B)], parent): > 64 µg/mL
- MIC ([11]; read-out: MIC of parent of resistant clone, S. pyogenes): 500 µg/mL
- MIC ([11]; read-out: MIC of parents of resistant clones, S. pyogenes): 0.5 µg/mL
- MIC ([11]; read-out: MIC of resistant clones, S. pyogenes): > 64 µg/mL
- MIC ([11]; read-out: Parental MICs, S. pyogenes, 5 strains with varying resistotypes): 0.03 to 4 µg/mL (≈ 0.0401 to 5.35 µM)
- MIC ([11]; read-out: Selected Resistance (MIC), strain 237 Macrolide-R [LA mutation], after serial passages in the drug): 1 µg/mL (≈ 1.34 µM)
- MIC ([11]; read-out: Selected Resistance (MIC), strain 2011 Macrolide-R [mef(A)], after serial passages in the drug): 8 µg/mL (≈ 10.7 µM)
- MIC ([11]; read-out: Selected Resistance (MIC), strain 2094 Macrolide-R [erm(A)], after serial passages in the drug): > 64 µg/mL
- MIC ([11]; read-out: Selected Resistance (MIC), strain 2132 Macrolide-S, after serial passages in the drug): 0.016 µg/mL (≈ 0.0214 µM)
- days until resistant clones (MIC increase) ([11]; daily passages, max. 50): 6 days
- Retest MIC after 10 Antibioticfree Subcultures ([11]; strain 237 Macrolide-R [LA mutation], clone selected with CEM-101): 1 µg/mL
- Retest MIC after 10 Antibioticfree Subcultures ([11]; strain 237 Macrolide-R [LA mutation], clone selected with CLN): 0.5 µg/mL
- Retest MIC after 10 Antibioticfree Subcultures ([11]; strain 2011 Macrolide-R [mef(A)], clone selected with AZI): 4 µg/mL
- Retest MIC after 10 Antibioticfree Subcultures ([11]; strain 2094 Macrolide-R [erm(A)], clone selected with AZI): 1 µg/mL
- Retest MIC after 10 Antibioticfree Subcultures ([11]; strain 2094 Macrolide-R [erm(A)], clone selected with CEM-101): 8 µg/mL
- Retest MIC after 10 Antibioticfree Subcultures ([11]; strain 2094 Macrolide-R [erm(A)], clone selected with CLN): 1 µg/mL
- Retest MIC after 10 Antibioticfree Subcultures ([11]; strain 2094 Macrolide-R [erm(A)], clone selected with CLR): >64 µg/mL
- Retest MIC after 10 Antibioticfree Subcultures ([11]; strain 2094 Macrolide-R [erm(A)], clone selected with TEL): 8 µg/mL
- Retest MIC after 10 Antibioticfree Subcultures ([11]; strain 2132 Macrolide-S, clone selected with AZI): 0.25b μg/ml
- Retest MIC after 10 Antibioticfree Subcultures ([11]; strain 2368 Macrolide-R [erm(B)], clone selected with CEM-101): >64 µg/mL
- Retest MIC after 10 Antibioticfree Subcultures ([11]; strain 2368 Macrolide-R [erm(B)], clone selected with TEL): >64 µg/mL
- Mutant selection frequencies ([12]; at 2×MIC): <1.0×10^−10-1.7×10^−7
- Mutant selection frequencies ([12]; at 8×MIC): <1.0×10^−10-5.0×10^−9
- single step mutation frequency ([12]; strain 237 Macrolide-R [L4 mutation], 2 × MIC): <3.3 × 10^−10
- single step mutation frequency ([12]; strain 237 Macrolide-R [L4 mutation], 4 × MIC): <3.3 × 10^−10
- single step mutation frequency ([12]; strain 237 Macrolide-R [L4 mutation], 8 × MIC): <3.3 × 10^−10
- single step mutation frequency ([12]; strain 2094 Macrolide-R [erm(A)], 2 × MIC): 1.7 × 10^−7
- single step mutation frequency ([12]; strain 2094 Macrolide-R [erm(A)], 4 × MIC): 1.0 × 10^−7
- single step mutation frequency ([12]; strain 2094 Macrolide-R [erm(A)], 8 × MIC): 5.0 × 10^−9
- single step mutation frequency ([12]; strain 2132 Macrolide-S, 2 × MIC): <1.0 × 10^−10
- single step mutation frequency ([12]; strain 2132 Macrolide-S, 4 × MIC): <1.0 × 10^−10
- single step mutation frequency ([12]; strain 2132 Macrolide-S, 8 × MIC): <1.0 × 10^−10
- Mutant selection frequencies ([13]; S. pneumoniae, at 2×MIC): <1.0×10^−9-5.0×10^−7
- single step mutation frequency ([13]; strain 1077 Macrolide-S, 2 × MIC): 1.1 × 10^−9
- single step mutation frequency ([13]; strain 1077 Macrolide-S, 4 × MIC): <1.2 × 10^−10
- single step mutation frequency ([13]; strain 1077 Macrolide-S, 8 × MIC): <1.2 × 10^−10
- single step mutation frequency ([13]; strain 1635 Macrolide-R [erm(A)], 2 × MIC): <3.1 × 10^−9
- single step mutation frequency ([13]; strain 1635 Macrolide-R [erm(A)], 4 × MIC): <3.1 × 10^−9
- single step mutation frequency ([13]; strain 1635 Macrolide-R [erm(A)], 8 × MIC): <3.1 × 10^−9
- single step mutation frequency ([13]; strain 3665 Macrolide-R [mef(A)], 2 × MIC): 5.0 × 10^−7
- single step mutation frequency ([13]; strain 3665 Macrolide-R [mef(A)], 4 × MIC): <5.0 × 10^−10
- single step mutation frequency ([13]; strain 3665 Macrolide-R [mef(A)], 8 × MIC): <5.0 × 10^−10
- single step mutation frequency ([13]; strain 7127 Macrolide-S [S20N in L4, A105V in L22], 2 × MIC): <1.0 × 10^−9
- single step mutation frequency ([13]; strain 7127 Macrolide-S [S20N in L4, A105V in L22], 4 × MIC): <1.0 × 10^−9
- single step mutation frequency ([13]; strain 7127 Macrolide-S [S20N in L4, A105V in L22], 8 × MIC): <1.0 × 10^−9
